Broadly, the IC50 is the concentration that gives 50% inhibition. Low values mean higher potency, high ones lower potency. Usually inhibition stands for the change of the read-out against control, counted positive when it falls.

The target in assay [1] is T1, EphrinB2-EphB2 (Homo sapiens, UniProt P29323).
T1 construct: soluble human EphB1-His, EphB2-His, and EphB4-His ectodomains; commercially available human EphrinB1-Fc (EB1), EphrinB2-Fc (EB2), and EphrinB3-Fc (EB3) ectodomain proteins; purchased
T1 sequence (P29323 19-543 limits assumed): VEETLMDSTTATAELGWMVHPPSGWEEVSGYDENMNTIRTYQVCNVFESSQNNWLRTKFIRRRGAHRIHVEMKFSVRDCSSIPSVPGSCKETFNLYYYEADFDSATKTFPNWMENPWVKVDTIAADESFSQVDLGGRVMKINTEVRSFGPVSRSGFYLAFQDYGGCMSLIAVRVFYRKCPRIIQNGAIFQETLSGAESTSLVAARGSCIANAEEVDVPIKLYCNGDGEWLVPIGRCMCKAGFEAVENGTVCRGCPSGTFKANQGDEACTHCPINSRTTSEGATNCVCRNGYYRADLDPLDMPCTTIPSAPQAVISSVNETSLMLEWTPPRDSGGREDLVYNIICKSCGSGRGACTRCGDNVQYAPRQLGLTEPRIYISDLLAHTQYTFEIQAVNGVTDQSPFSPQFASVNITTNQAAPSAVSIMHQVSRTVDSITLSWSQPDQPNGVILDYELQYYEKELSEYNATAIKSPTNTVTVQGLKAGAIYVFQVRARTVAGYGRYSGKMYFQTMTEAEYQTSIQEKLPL
Kind of assay: Octet tetramerization inhibition, immobilized human EphrinB2 binding to 50 nM soluble human EphB2. In general terms: In BLI a coated tip is dipped into the sample, and binding shifts an interference pattern.

The target in another assay is T2, EphrinB2-EphB1 (Homo sapiens, UniProt P54762).
T2 construct: soluble human EphB1-His, EphB2-His, and EphB4-His ectodomains; commercially available human EphrinB1-Fc (EB1), EphrinB2-Fc (EB2), and EphrinB3-Fc (EB3) ectodomain proteins; purchased
T2 sequence (P54762 18-540 limits assumed): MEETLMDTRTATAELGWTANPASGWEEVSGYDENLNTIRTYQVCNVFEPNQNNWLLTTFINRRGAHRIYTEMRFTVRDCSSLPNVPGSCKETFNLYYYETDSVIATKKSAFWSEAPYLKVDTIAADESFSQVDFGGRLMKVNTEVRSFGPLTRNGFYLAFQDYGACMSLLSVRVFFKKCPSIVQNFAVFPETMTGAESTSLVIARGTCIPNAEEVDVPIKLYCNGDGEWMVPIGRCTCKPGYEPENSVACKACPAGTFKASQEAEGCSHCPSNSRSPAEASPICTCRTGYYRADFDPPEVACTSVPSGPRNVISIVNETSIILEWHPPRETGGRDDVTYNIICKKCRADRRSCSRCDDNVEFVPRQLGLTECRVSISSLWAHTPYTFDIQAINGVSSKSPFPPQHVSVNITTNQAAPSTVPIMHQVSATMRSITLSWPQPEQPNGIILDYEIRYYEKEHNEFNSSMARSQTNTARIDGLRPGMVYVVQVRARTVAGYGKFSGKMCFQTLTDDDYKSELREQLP
Nature of the assay: Octet 80 sec association/500 sec dissociation, immobilized human EphrinB2-Fc binding to soluble human EphB1-His. The conditions noted are these: for inhibition at 3.2 µM: EphB1, 25 nM EphB1, 3.2 μM compound, A20-I as max control, 0* = less than 0, no inhibition. The protocol: (§1) In another experiment, whether certain A20 analogs might have specificity for different Eph receptors was tested. An Octet RED384 system was used to obtain biophysical ON-OFF binding data (association-dissociation) for the three different human EphrinB2-EphB1, EphrinB2-EphB2, and EphrinB2-EphB4 protein-protein interactions and to assess the effect of A20 chemicals on the binding kinetics.
(§2) FIGS. 72A-72C show three example Octet sensorgram response traces for the immobilized human EphrinB2 ectodomain protein binding to soluble forms of the human EphB1, EphB2, and EphB4 ectodomain proteins, in the absence or presence of an A20 chemical (buffer conditions are always PBSTD:PBS with 0.05% Tween-20, 1% DMSO, and +/− indicated chemical). After loading EphrinB2-Fc protein to Octet AHC biosensors, washing, and obtaining stable baseline measurements in the appropriate PBSTD (either with or without indicated chemical), the sensors are placed in its buffer that also contains the indicated soluble EphB protein for the association step (0-80″), and then returned to its buffer for the dissociation step (81″-580″). In each figure (FIGS. 72A-72C), a sensorgram run using 10 μM of the 2×HCl salt form of A20-I is compared to the no compound control run to exemplify the maximum level of reduced response signal typically obtained with a potent A20 chemical.
(§3) Because the response levels during the dissociation step plateau for the EphrinB2-EphB2 and EphrinB2-EphB1 interactions by the first 80″, AUCs were also calculated for run data encompassing the first 160″ of each experiment to account for both the 80″ association data (red asterisks) and the first 80″ of dissociation data (marked by green line and asterisks).
(§4) The selectivity of another A20 analog (a 3×HCL salt form of compound BQPB4) in comparison to previously tested compound, A20-1, was tested as described in Example 27 above.
(§5) Further to the experiments listed above, a series of dose-response experiments were conducted to determine the IC50 of a selected A20 chemical (A20-1) on the kinetics of human EphrinB2 ligand ectodomain protein binding to its cognate human EphB1, EphB2, and EphB4 receptor ectodomain proteins. FIG. 74A-74C are representative sensorgrams showing the effect of 0, 0.1, 0.2, 0.4, 0.8, 1.6, and 3.2 μM, concentrations of the 2×HCl salt of A20-I along with a 10 μM max standard (also A20-1) on three different Ephrin-EphB interactions (e.g., EphB1 in FIG. 74A, EphB2 in FIG. 74B and EphB4 in FIG. 74C). […] Additional IC50 values were determined at specific timepoints, at 75″ into the association step and at 55″ into the dissociation step (135″).
(§6) All absolute and relative IC50 values are provided in the Table 6 below, where absolute are based off the full binding sensorgram traces, and relative are based off of the max control traces.
(§7) In another experiment, the % inhibition for various A20 analog chemicals against the three different EphrinB2-EphB protein interactions was determined. Specifically, the percent inhibition for immobilized human EphrinB2-Fc binding to 25 nM soluble human EphB1-His (FIG. 76A, enlarged in FIG. 76D), EphB2-His (FIG. 76B, enlarged in FIG. 76E), and EphB4-His (FIG. 76C, enlarged in FIG. 76F) with 3511-I, 8009-9255, QTM-Br, A19, A19-NO2, and IM (all at 3.2 μM) was determined.

The target of assay [2] is T1, EphrinB2-EphB2. Nature of the assay: Octet 80 sec association/500 sec dissociation, immobilized human EphrinB2-Fc binding to soluble human EphB2-His. The following applies: for inhibition at 3.2 µM: EphB2, 25 nM EphB2, 3.2 μM compound, A20-I as max control, 0* = less than 0, no inhibition. The protocol:
as §1, §2, §3, §4, §5, §6, §7

Another assay concerns the target T3, EphrinB2-EphB4 (Homo sapiens, UniProt P54760).
T3 construct: soluble human EphB1-His, EphB2-His, and EphB4-His ectodomains; commercially available human EphrinB1-Fc (EB1), EphrinB2-Fc (EB2), and EphrinB3-Fc (EB3) ectodomain proteins; purchased
T3 sequence (P54760 16-539 limits assumed): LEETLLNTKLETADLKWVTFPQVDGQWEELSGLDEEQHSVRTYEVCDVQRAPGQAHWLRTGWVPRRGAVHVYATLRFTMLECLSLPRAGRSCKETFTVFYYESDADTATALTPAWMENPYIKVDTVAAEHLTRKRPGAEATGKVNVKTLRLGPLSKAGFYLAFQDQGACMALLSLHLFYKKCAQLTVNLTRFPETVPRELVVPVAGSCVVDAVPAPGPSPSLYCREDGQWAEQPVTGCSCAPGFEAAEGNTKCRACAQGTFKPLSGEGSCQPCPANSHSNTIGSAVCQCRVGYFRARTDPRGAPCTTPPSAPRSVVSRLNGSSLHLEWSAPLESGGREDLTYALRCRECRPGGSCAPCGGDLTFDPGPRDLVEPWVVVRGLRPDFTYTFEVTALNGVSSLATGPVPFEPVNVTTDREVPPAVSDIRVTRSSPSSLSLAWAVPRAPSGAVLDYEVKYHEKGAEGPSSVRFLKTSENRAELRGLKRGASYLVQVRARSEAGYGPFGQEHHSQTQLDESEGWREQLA
Kind of assay: Octet 80 sec association/500 sec dissociation, immobilized human EphrinB2-Fc binding to soluble human EphB4-His. The following applies: for inhibition at 3.2 µM: EphB4, 25 nM EphB4, 3.2 μM compound, A20-I as max control, 0* = less than 0, no inhibition. How it is done:
as §1, §2, §3, §4, §5, §6, §7

Where [3] appears, read: tetramerization inhibitor IC50 (relative), association step, surmountable tetramer.
The mark [4] stands for this setting: read-out: % Inhibition: Association + Dissociation (160 sec).
Setting [5] is: read-out: % Inhibition: Association ONLY (80 sec).

Molecules are shown by their SMILES. Where two headings read alike, the source gives them in different places. Bounds are passed on as bounds.

As to `OCc1ccc2c(CN3CCOCC3)ccc(O)c2n1` [Compound 12, 2-(hydroxymethyl)-5-(morpholinomethyl)quinolin-8-ol], the IC50 on EphrinB2-EphB2 [1] (Absolute AUC/IC50, Table A, EphrinB2-EphB2) was greater than 3200 nM; on EphrinB2-EphB2 [1] (Absolute Association IC50 (300 sec), Table A, EphrinB2-EphB2), greater than 3200 nM; at EphrinB2-EphB2 [1] (Absolute Dissociation IC50 (450 sec), Table A, EphrinB2-EphB2), greater than 3200 nM; on EphrinB2-EphB2 [1] (Relative AUC/IC50, Table A, EphrinB2-EphB2, compound 7: association only), greater than 3200 nM; on EphrinB2-EphB2 [1] (Relative Association IC50 (300 sec), Table A, EphrinB2-EphB2) it was 2750 nM; at EphrinB2-EphB2 [1] (Relative Dissociation IC50 (450 sec), Table A, EphrinB2-EphB2), 1480 nM. Also, the IC50 on EphrinB2-EphB2 [1] (setting [3]) was roughly 3000 nM. On EphrinB2-EphB1 (at 3.2 μM and 80 seconds, immobilized human EphrinB2, 25 nM soluble human EphB1), the “EphB1 Inhibition Percent, Inhibition of Association ONLY” value was found to be 17.4%. For the same compound, the “EphB1 Inhibition Percent, Inhibition of Association-Dissociation” value at EphrinB2-EphB1 (at 3.2 μM and 580 seconds, immobilized human EphrinB2, 25 nM soluble human EphB1) turned out to be 17.4%. Besides, the “EphB2 Inhibition Percent, Inhibition of Association ONLY” value on EphrinB2-EphB2 [2] (at 3.2 μM and 80 seconds, immobilized human EphrinB2, 25 nM soluble human EphB2) is recorded as 48.1%. Further, the “EphB2 Inhibition Percent, Inhibition of Association-Dissociation” value at EphrinB2-EphB2 [2] (at 3.2 μM and 580 seconds, immobilized human EphrinB2, 25 nM soluble human EphB2) was found to be 48.1%. For the same compound, the “EphB4 Inhibition Percent, Inhibition of Association ONLY” value at EphrinB2-EphB4 (at 3.2 μM and 80 seconds, immobilized human EphrinB2, 25 nM soluble human EphB4) amounted to 11.0%. Moreover, the “EphB4 Inhibition Percent, Inhibition of Association-Dissociation” value on EphrinB2-EphB4 (at 3.2 μM and 580 seconds, immobilized human EphrinB2, 25 nM soluble human EphB4) stood at 11.0%.
`O=S1(=O)CCN(Cc2cc(Br)c(O)c3ncccc23)CC1` [Compound 16, 4-((7-bromo-8-hydroxyquinolin-5-yl)methyl)thiomorpholine 1,1-dioxide]: the half-inhibitory concentration (IC50) at EphrinB2-EphB2 [1] (setting [3]) is roughly 800 nM. In addition, the inhibition at 3.2 µM on EphrinB2-EphB1 (setting [4]) amounted to 48%; on EphrinB2-EphB1 (setting [5]), 33%; at EphrinB2-EphB2 [2] (setting [4]), 74.5%; on EphrinB2-EphB2 [2] (setting [5]), 59.5%; at EphrinB2-EphB4 (setting [4]), 37.2%; at EphrinB2-EphB4 (setting [5]), 18.1%. Moreover, the “inhibition of EphrinB2-EphB interactions” value at EphrinB2-EphB2 [2] (3.2 μM, EphB1, EphB2 and EphB4) was “activity similar to A20-I max control”.

Source of the values: patent publication US20260374739A1, “SMALL MOLECULAR WEIGHT CHEMICAL COMPOUND TO ANTAGONIZE EPH-EPHRIN TETRAMERIZATION AND INHIBIT BIDIRECTIONAL SIGNALING” (THE BOARD OF REGENTS OF THE UNIVERSITY OF TEXAS SYSTEM, priority 2022, published 2026).
